Source: US20230277533A1, “THERAPEUTIC COMBINATIONS COMPRISING UBIQUITIN-SPECIFIC-PROCESSING PROTEASE 1 (USP1) INHIBITORS AND POLY (ADP-RIBOSE) POLYMERASE (PARP) INHIBITORS” (KSQ Therapeutics, Inc., priority 2020, published 2023)

Key:
Experiment in all cases: Colony formation (CFU) assay
Type in all cases: cell-based
[1] = tested on: T226; details: T226, breast
In short: (§1)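 Absorbance at 565 nm of crystal violet extracted with 10% acetic acid measures colony mass. Cells grow ~14 days in six-well plates, exposed from day 8 to USP1 inhibitor, niraparib, olaparib or DMSO.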

[2] = tested on: UMUC3; details: Homo sapiens; UMUC3, bladder
In short: as §1

[3] = tested on: RT112; details: Homo sapiens, RT-112; RT112, bladder
In short: as §1

[4] = tested on: SN12C; details: Homo sapiens, kidney
In short: as §1

[5] = tested on: LNCAP; details: Homo sapiens, prostate
In short: as §1

[6] = tested on: CAPAN1; details: Homo sapiens, CAPAN-1; CAPAN1, pancreas
In short: as §1

[7] = tested on: NCIH838; details: Homo sapiens, NCI-H838; NCIH838, lung
In short: as §1

[8] = tested on: TGBC1TKB; details: biliary tract
In short: as §1

[9] = tested on: RL952; details: Homo sapiens, RL95-2; RL952, uterus
In short: as §1

[10] = tested on: HS821T; details: bone
In short: as §1

[11] = tested on: OV56; details: OV56, ovary
In short: as §1

[12] = tested on: HBCx17; details: HBCx17, breast
In short: as §1

[13] = tested on: DOTC24510; details: Homo sapiens, DoTc2-4510; DOTC24510, cervix
In short: as §1

[14] = tested on: UBLC1; details: UBLC1, bladder
In short: as §1

[15] = tested on: HT144; details: Homo sapiens, HT-144; HT144, skin
In short: as §1

[16] = tested on: OVMANA; details: ovary
In short: as §1

[17] = tested on: KU1919; details: Homo sapiens, KU-19-19; KU1919, bladder
In short: as §1

[18] = tested on: DMS53; details: Homo sapiens, DMS-53; DMS53, lung
In short: as §1

[19] = tested on: SNU1076; details: SNU1076, head and neck
In short: as §1

[20] = tested on: SAOS2; details: Homo sapiens, SAOS-2; SAOS2, bone
In short: as §1

[21] = tested on: TE14; details: TE14, esophagus
In short: as §1

[22] = tested on: HBCx19; details: HBCx19, breast
In short: as §1

[23] = tested on: NCIH1693; details: Homo sapiens, NCI-H1693; NCIH1693, lung
In short: as §1

[24] = tested on: GOTO; details: nervous system
In short: as §1

[25] = tested on: G292CLONEA141B1; details: G292CLONEA141B1, bone
In short: as §1

[26] = tested on: NCIH1373; details: Homo sapiens, NCI-H1373; NCIH1373, lung
In short: as §1

[27] = tested on: SNU81; details: SNU81, colon
In short: as §1

[28] = tested on: VMRCRCW; details: kidney
In short: as §1

[29] = tested on: HCC1954; details: Homo sapiens; HCC1954, breast
In short: as §1

[30] = tested on: SCC15; details: Homo sapiens, SCC-15; SCC15, head and neck
In short: as §1

[31] = tested on: KYSE410; details: Homo sapiens, KYSE-410; KYSE410, esophagus
In short: as §1

[32] = tested on: HBCx13B; details: breast
In short: as §1

[33] = tested on: SUIT2; details: SUIT-2; SUIT2, pancreas
In short: as §1

[34] = tested on: SNUC4; details: Homo sapiens, SNU-C4; SNUC4, colon
In short: as §1

[35] = tested on: ECGI10; details: ECGI10, esophagus
In short: as §1

[36] = tested on: SKOV3_OR1a1null; details: ovary
In short: as §1

[37] = tested on: SNU626; details: SNU626, nervous system
In short: as §1

[38] = tested on: OVSAHO; details: Homo sapiens, ovary
In short: as §1

Row | SMILES | IC50 [1] | IC50 [2] | IC50 [3] | IC50 [4] | IC50 [5] | IC50 [6] | IC50 [7] | IC50 [8] | IC50 [9] | IC50 [10] | IC50 [11] | IC50 [12] | IC50 [13] | IC50 [14] | IC50 [15] | IC50 [16] | IC50 [17] | IC50 [18] | IC50 [19] | IC50 [20] | also measured
1 | COc1ncnc(C2CC2)c1-c1ncc2cnn(Cc3ccc(-c4nc(C(F)(F)F)cn4C)cc3)c2n1 [Formula II, 6-(4-cyclopropyl-6-methoxypyrimidin-5-yl)-1-(4-(1-methyl-4-(trifluoromethyl)-1H-imidazol-2-yl)benzyl)-1H-pyrazolo[3,4-d]pyrimidine] | > 300 nM | > 300 nM | > 300 nM | 64.7 nM | > 300 nM | > 300 nM | > 300 nM | > 300 nM | > 300 nM | > 300 nM | > 300 nM | > 300 nM | > 300 nM | > 300 nM | 84.3 nM | > 300 nM | 25 nM | > 300 nM | > 300 nM | > 300 nM | IC50 [21]: > 300 nM; IC50 [22]: > 300 nM; IC50 [23]: 12.7 nM; IC50 [24]: > 300 nM; IC50 [25]: > 300 nM; IC50 [26]: > 300 nM; IC50 [27]: 10.2 nM; IC50 [28]: > 300 nM; IC50 [29]: > 300 nM; IC50 [30]: 28 nM; IC50 [31]: > 300 nM; IC50 [32]: > 300 nM; IC50 [33]: > 300 nM; IC50 [34]: > 300 nM; IC50 [35]: > 300 nM; IC50 [36]: > 300 nM; IC50 [37]: > 300 nM; IC50 [38]: > 300 nM
2 | NC(=O)c1cccc2cn(-c3ccc([C@@H]4CCCNC4)cc3)nc12 [Niraparib, niraparib, reference compound] | > 300 nM | > 300 nM | > 300 nM | > 300 nM | > 300 nM | 185 nM | > 300 nM | > 300 nM | > 300 nM | > 300 nM | > 300 nM | 13.8 nM | 30.4 nM | > 300 nM | 114 nM | > 300 nM | 181 nM | 168 nM | > 300 nM | 201 nM | IC50 [21]: > 300 nM; IC50 [22]: > 300 nM; IC50 [23]: > 300 nM; IC50 [24]: 22.4 nM; IC50 [25]: > 300 nM; IC50 [26]: > 300 nM; IC50 [27]: 18.6 nM; IC50 [28]: > 300 nM; IC50 [29]: > 300 nM; IC50 [30]: > 300 nM; IC50 [31]: > 300 nM; IC50 [32]: > 300 nM; IC50 [33]: > 300 nM; IC50 [34]: > 300 nM; IC50 [35]: > 300 nM; IC50 [36]: > 300 nM; IC50 [37]: > 300 nM; IC50 [38]: > 300 nM
